Measurements taken from US7888050B2, “Method for quantifying phosphokinase activity on proteins” (Life Technologies Corporation, priority 2000, dated 2011).

Molecular target: T1, human EGFR (Homo sapiens, UniProt P00533)
T1 construct: purchased Sigma E-2645; host or cells: A431 human carcinoma cells (natural source)
Test: EGFR autophosphorylation, EGFR [pY845] PSSA ELISA
Type: biochemical
Settings: purified human EGFR, 1 uM ATP, 30 minutes at 30° C.; FIG. 16

T1 sequence (P00533 25-1210): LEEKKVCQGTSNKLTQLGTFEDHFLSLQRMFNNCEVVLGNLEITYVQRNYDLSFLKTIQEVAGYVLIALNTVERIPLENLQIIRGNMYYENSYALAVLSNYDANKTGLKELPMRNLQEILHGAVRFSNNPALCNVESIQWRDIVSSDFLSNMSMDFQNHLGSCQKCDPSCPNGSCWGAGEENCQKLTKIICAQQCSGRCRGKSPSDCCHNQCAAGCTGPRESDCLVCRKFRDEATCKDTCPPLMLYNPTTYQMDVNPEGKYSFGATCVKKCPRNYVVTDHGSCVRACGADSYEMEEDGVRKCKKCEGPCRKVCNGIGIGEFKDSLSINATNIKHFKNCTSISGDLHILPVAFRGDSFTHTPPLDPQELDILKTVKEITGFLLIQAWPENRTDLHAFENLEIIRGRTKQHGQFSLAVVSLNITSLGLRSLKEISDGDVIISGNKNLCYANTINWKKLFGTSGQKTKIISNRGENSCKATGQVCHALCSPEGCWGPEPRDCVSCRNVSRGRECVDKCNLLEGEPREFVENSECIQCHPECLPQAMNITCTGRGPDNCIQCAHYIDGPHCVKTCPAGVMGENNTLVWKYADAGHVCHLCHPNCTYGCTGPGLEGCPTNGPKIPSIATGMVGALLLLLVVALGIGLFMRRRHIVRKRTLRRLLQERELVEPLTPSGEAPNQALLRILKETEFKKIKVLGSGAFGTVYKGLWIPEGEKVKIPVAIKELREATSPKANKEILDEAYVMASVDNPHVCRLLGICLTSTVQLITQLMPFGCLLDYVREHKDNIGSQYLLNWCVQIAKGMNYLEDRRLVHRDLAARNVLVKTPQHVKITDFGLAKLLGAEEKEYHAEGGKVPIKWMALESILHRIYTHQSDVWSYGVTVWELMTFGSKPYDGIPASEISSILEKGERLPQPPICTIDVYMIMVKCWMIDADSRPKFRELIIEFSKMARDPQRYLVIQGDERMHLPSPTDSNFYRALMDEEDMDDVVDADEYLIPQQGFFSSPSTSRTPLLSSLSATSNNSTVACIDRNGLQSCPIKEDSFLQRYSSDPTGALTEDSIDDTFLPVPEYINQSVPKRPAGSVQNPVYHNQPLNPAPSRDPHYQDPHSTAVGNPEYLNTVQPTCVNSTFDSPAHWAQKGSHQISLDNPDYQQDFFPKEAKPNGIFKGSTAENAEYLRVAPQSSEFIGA

EGFR [pY845] phosphorylation (autophosphorylation): inhibition of that activity
Structure (SMILES): CNc1cc2c(Nc3cccc(Br)c3)ncnc2cn1 [PD158780]
